21 compounds from patent US10336701B2, “Pyridin-2-one derivatives of formula (II) useful as EP3 receptor antagonists” (Janssen Pharmaceutica NV, priority 2017, dated 2019) can be followed below.

SMILES strings stand for the structures. pIC50, pKi: −log10 of the molar value. A value given as a limit tells only on which side of the number the result lay.

In test [1] the target is T1, EP3 receptor (Homo sapiens, UniProt P43115).
T1 construct: purchased Millipore HTS092M
T1 sequence (P43115 1-390): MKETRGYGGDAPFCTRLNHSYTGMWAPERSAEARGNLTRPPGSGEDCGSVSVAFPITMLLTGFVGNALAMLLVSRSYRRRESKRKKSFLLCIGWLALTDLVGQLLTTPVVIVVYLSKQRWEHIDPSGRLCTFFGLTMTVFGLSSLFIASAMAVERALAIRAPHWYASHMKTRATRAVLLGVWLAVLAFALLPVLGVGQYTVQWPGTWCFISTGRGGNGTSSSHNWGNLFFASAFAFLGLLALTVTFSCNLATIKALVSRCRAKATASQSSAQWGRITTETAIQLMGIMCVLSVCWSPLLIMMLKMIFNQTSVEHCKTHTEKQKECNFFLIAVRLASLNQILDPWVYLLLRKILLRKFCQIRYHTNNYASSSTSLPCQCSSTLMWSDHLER
Briefly: CHO cell cAMP assay (forskolin and sulprostone stimulated, HTRF). The format is cell-based. As to conditions: CHO cells; sulprostone 700 nM (EC80) and FSK 2 μM (EC70), 37° C. for 30 minutes; read-out: CHO_cAMP IC50. How it is done:
For detection, a homogeneous competitive immunoassay (Time Resolved Fluorescence Energy Transfer (hTR-FRET)) was used.
Cells (6K cells per well) were plated in Poly-D-Lysine coated plates the day before the assay was to be run and were incubated at 37° C. […] At the start of the assay the buffer was removed from the cells and replaced with buffer containing test compound(s). Sulprostone at an EC80 dose (700 nM) and FSK at an EC70 dose (2 μM) were added to initiate the reaction (37° C. for 30 minutes).
FSK increases cAMP production and sulprostone decreases cAMP production produced by FSK. In this assay, EP3 antagonists will increase the cAMP to the level of cAMP generated by FSK alone.
Approximately one hour later the plates were read on an Envision (Perkin Elmer) in HTRF mode.
NSP, NSN, NSsample were converted to nM cAMP using the following equation: […]
IC50 values were determined from a […] (Hill equation) of a single 11-point compound dosing.
(Changes in cAMP serve as a functional read-out for many G protein-coupled receptors.)

The target in test [2] is T1, EP3 receptor. The test is described as follows: [3H]-PGE2 binding assay (EP3 competition binding). As to conditions: read-out: [3H]-PGE2 Binding Ki. In short, it runs like this: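 Scintillation-bead competition binding with EP3 membranes (2 μg/well), 2 nM [3H]-PGE2, 0.1% DMSO, in 50 mM Tris, 10 mM MgCl2, 1 mM EDTA, pH 7.4.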

For the compound `CCn1ncc2c(F)cc(-c3ccc(C(/C=C4\CCNC4=O)(CC)CC)c(=O)[nH]3)cc21` [compound 16, 6-(1-ethyl-4-fluoro-indazol-6-yl)-3-[1-ethyl-1-[(E)-(2-oxopyrrolidin-3-ylidene)methyl]propyl]-1H-pyridin-2-one], the negative-log IC50 (pIC50) at EP3 receptor [1] is 7.77. Also, the pKi at EP3 receptor [2] is 8.22.

On to `CCC(/C=C1/OC(=O)NC1=O)(CC)c1ccc(-c2ccc3c(c2)OC(C)(C)C=C3)[nH]c1=O` [compound 28, 5-(2-(6-(2,2-dimethyl-2H-chromen-7-yl)-2-oxo-1,2-dihydropyridin-3-yl)-2-ethylbutylidene)oxazolidine-2,4-dione], for which the negative logarithm of the IC50 (pIC50) at EP3 receptor [1] is below 4.70. Moreover, the pKi at EP3 receptor [2] is 5.25.

For `CCn1ncc2c(F)cc(-c3ccc(C(CC)(CC)c4ncc[nH]4)c(=O)[nH]3)cc21` [compound 31, 6-(1-ethyl-4-fluoro-indazol-6-yl)-3-[1-ethyl-1-(1H-imidazol-2-yl)propyl]-1H-pyridin-2-one], the pIC50 on EP3 receptor [1] is 6.32. For the same compound, the negative logarithm of the Ki (pKi) at EP3 receptor [2] is 7.43.

Take `CCn1ncc2c(F)cc(-c3ccc(C(CC)(CC)CC4CCNC4=O)c(=O)[nH]3)cc21` (stereo not drawn) [compound 40, 6-(1-ethyl-4-fluoro-1H-indazol-6-yl)-3-(3-((2-oxopyrrolidin-3-yl)methyl)pentan-3-yl)pyridin-2(1H)-one]: the negative logarithm of the IC50 (pIC50) at EP3 receptor [1] is 7.36. The pKi at EP3 receptor [2] was 7.96.

As for `CCN1CCOc2ccc(-c3ccc(C(CC)(CC)CC4OC(=O)NC4=O)c(=O)[nH]3)cc21` (stereo not drawn) [compound 44, 5-(2-ethyl-2-(6-(4-ethyl-3,4-dihydro-2H-benzo[b][1,4]oxazin-6-yl)-2-oxo-1,2-dihydropyridin-3-yl)butyl)oxazolidine-2,4-dione], the pIC50 at EP3 receptor [1] was 6.30. For the same compound, the negative-log Ki (pKi) on EP3 receptor [2] was 7.03.

Regarding `CCn1ncc2c(F)cc(-c3ccc(C(CC)(CC)CC4OC(=O)NC4=O)c(=O)[nH]3)cc21` (stereo not drawn) [compound 56, 5-(2-ethyl-2-(6-(1-ethyl-4-fluoro-1H-indazol-6-yl)-2-oxo-1,2-dihydropyridin-3-yl)butyl)oxazolidine-2,4-dione], the negative-log IC50 (pIC50) on EP3 receptor [1] is 6.64. The pKi on EP3 receptor [2] was 7.70.

With `CC(C)C(c1nnn[nH]1)c1ccc(-c2ccc3ccccc3c2)[nH]c1=O` (stereo not drawn) [compound 61, 3-(2-Methyl-1-(1H-tetrazol-5-yl)propyl)-6-(naphthalen-2-yl)pyridin-2(1H)-one], the pIC50 at EP3 receptor [1] was 6.42. Moreover, the negative logarithm of the Ki (pKi) at EP3 receptor [2] is 7.37.

As for `CC(C)C(CC1OC(=O)NC1=O)c1ccc(-c2ccc3cccc(F)c3c2)[nH]c1=O` (stereo not drawn) [compound 77], at EP3 receptor [1], the negative logarithm of the IC50 (pIC50) is 7.22. In addition, the pKi at EP3 receptor [2] was 7.80.

Regarding `Cc1cc(C(c2ncc[nH]2)C(C)C)c(=O)[nH]c1-c1ccc2cccc(F)c2c1` (stereo not drawn) [compound 82, 3-(1-(1H-imidazol-2-yl)-2-methylpropyl)-6-(8-fluoronaphthalen-2-yl)-5-methylpyridin-2(1H)-one], the negative-log IC50 (pIC50) at EP3 receptor [1] is 6.86. Also, the pKi on EP3 receptor [2] is 7.64.

Take `CC(=C1OC(=O)NC1=O)C(c1ccc(-c2ccc3cccc(F)c3c2)[nH]c1=O)C(C)C` (stereo not drawn) [compound 84]: the pIC50 at EP3 receptor [1] is 7.59. Besides, the pKi on EP3 receptor [2] is 8.15.

As to `CCn1cc2c(C)cc(-c3ccc(C(CC4OC(=O)NC4=O)C(C)C)c(=O)[nH]3)cc2n1` (stereo not drawn) [compound 86, 5-(2-(6-(2-ethyl-4-methyl-2H-indazol-6-yl)-2-oxo-1,2-dihydropyridin-3-yl)-3-methylbutyl)oxazolidine-2,4-dione], the negative-log IC50 (pIC50) on EP3 receptor [1] was 6.04. For the same compound, the pKi on EP3 receptor [2] was 6.94.

`CCn1ncc2c(F)cc(-c3ccc(C(CC4OC(=O)NC4=O)C(C)C)c(=O)[nH]3)cc21` (stereo not drawn) [compound 87, 5-(2-(6-(1-ethyl-4-fluoro-1H-indazol-6-yl)-2-oxo-1,2-dihydropyridin-3-yl)-3-methylbutyl)oxazoli-dine-2,4-dione]: the pIC50 on EP3 receptor [1] is 6.83. Besides, the pKi on EP3 receptor [2] was 7.49.

Consider `CCn1cnc2c(F)c(-c3ccc(C(C=C4OC(=O)NC4=O)C(C)C)c(=O)[nH]3)ccc21` (stereo not drawn) [compound 90, 5-(2-(6-(1-ethyl-4-fluoro-1H-benzo[d]imidazol-5-yl)-2-oxo-1,2-dihydropyridin-3-yl)-3-methylbutyli-dene)oxazolidine-2,4-dione], for which, on EP3 receptor [1], the negative logarithm of the IC50 (pIC50) is 5.26. Also, on EP3 receptor [2], the pKi is 6.20.

For `CCn1cnc2ccc(-c3ccc(C(C=C4OC(=O)NC4=O)C(C)C)c(=O)[nH]3)c(F)c21` (stereo not drawn) [compound 91, 5-(2-(6-(3-ethyl-4-fluoro-3H-benzo[d]imidazol-5-yl)-2-oxo-1,2-dihydropyridin-3-yl)-3-methylbutylidene)oxazolidine-2,4-dione], on EP3 receptor [1], the pIC50 was below 4.70. In addition, the pKi at EP3 receptor [2] was below 5.00.

Regarding `O=C1NC(=O)/C(=C/C(c2ccc(-c3ccc4cccc(F)c4c3)[nH]c2=O)C2CCCC2)O1` (stereo not drawn) [compound 92, (Z)-5-(2-cyclopentyl-2-(6-(8-fluoronaphthalen-2-yl)-2-oxo-1,2-dihydropyridin-3-yl)ethylidene)oxazolidine-2,4-dione], the negative logarithm of the IC50 (pIC50) at EP3 receptor [1] is 8.15. Further, at EP3 receptor [2], the pKi is 8.05.

On to `CC(C)C(/C=C1\OC(=O)NC1=O)c1ccc(-c2cc(Cl)c3c(c2)ncn3C)[nH]c1=O` (stereo not drawn) [compound 97, (Z)-5-(2-(6-(7-chloro-1-methyl-1H-benzo[d]imidazol-5-yl)-2-oxo-1,2-dihydropyridin-3-yl)-3-methylbutylidene)oxazolidine-2,4-dione], for which, on EP3 receptor [1], the pIC50 was 6.18. In addition, on EP3 receptor [2], the negative logarithm of the Ki (pKi) is 6.75.

Consider `CCn1cc2c(C)cc(-c3ccc(C(/C=C4\OC(=O)NC4=O)C(C)C)c(=O)[nH]3)cc2n1` (stereo not drawn) [compound 98, (Z)-5-(2-(6-(2-ethyl-4-methyl-2H-indazol-6-yl)-2-oxo-1,2-dihydropyridin-3-yl)-3-methylbutylidene)oxazolidine-2,4-dione], for which the pIC50 on EP3 receptor [1] is below 4.70. In addition, on EP3 receptor [2], the pKi was below 5.00.

`O=C1NC(=O)/C(=C/C(c2ccc(-c3ccc4cccc(F)c4c3)[nH]c2=O)C2CC2)O1` (stereo not drawn) [compound 103, (Z)-5-(2-cyclopropyl-2-(6-(8-fluoronaphthalen-2-yl)-2-oxo-1,2-dihydropyridin-3-yl)ethylidene)oxazolidine-2,4-dione]: the negative logarithm of the IC50 (pIC50) on EP3 receptor [1] was 7.48. Besides, the pKi on EP3 receptor [2] was 7.66.

As to `CCn1ncc2c(C)cc(-c3ccc(C(/C=C4\OC(=O)NC4=O)C(C)C)c(=O)[nH]3)cc21` (stereo not drawn) [compound 106, (Z)-5-(2-(6-(1-ethyl-4-methyl-1H-indazol-6-yl)-2-oxo-1,2-dihydropyridin-3-yl)-3-methylbutylidene)oxazolidine-2,4-dione], the pIC50 at EP3 receptor [1] is 6.26. The negative logarithm of the Ki (pKi) on EP3 receptor [2] is 7.30.

In the case of `CC(C)C(CC1OC(=O)NC1=O)c1ccc(-c2cc(Cl)c3c(c2)ncn3C)[nH]c1=O` (stereo not drawn) [compound 107, 5-(2-(6-(7-chloro-1-methyl-1H-benzo[d]imidazol-5-yl)-2-oxo-1,2-dihydropyridin-3-yl)-3-methylbutyl)oxazolidine-2,4-dione], on EP3 receptor [1], the pIC50 is below 4.70. Besides, the negative logarithm of the Ki (pKi) on EP3 receptor [2] was below 5.00.

On to `CC(C)C(/C=C1\OC(=O)NC1=O)c1ccc(-c2ccc3c(c2)N(C)CCO3)[nH]c1=O` (stereo not drawn) [compound 108, (Z)-5-(3-methyl-2-(6-(4-methyl-3,4-dihydro-2H-benzo[b][1,4]oxazin-6-yl)-2-oxo-1,2-dihydropyridin-3-yl)butylidene)oxazolidine-2,4-dione], for which the negative-log IC50 (pIC50) on EP3 receptor [1] was 6.22. The pKi on EP3 receptor [2] is 6.77.

A word on the pIC50: it is the IC50 on a negative log10 scale, so that one unit is a factor of ten. For orientation: pKi means the negative decadic logarithm of the Ki, by convention in mol/L.
